Experimental findings from patent publication US20080221097A1, “Imidazopyridine Derivatives as Cannabinoid Receptor Ligands” (priority 2005, published 2008) are described below.

The term Emax denotes the maximal effect, on the per cent scale that the assay sets.

For the assay, the target named is T1, human cannabinoid CB2 receptor (Homo sapiens, UniProt P34972).
T1 construct: expressed in transfected cells; host or cells: Saccharomyces cerevisiae strain MMY23 (cassette integrated at the ura3 locus, GPD promoter)
T1 sequence (P34972 whole entry): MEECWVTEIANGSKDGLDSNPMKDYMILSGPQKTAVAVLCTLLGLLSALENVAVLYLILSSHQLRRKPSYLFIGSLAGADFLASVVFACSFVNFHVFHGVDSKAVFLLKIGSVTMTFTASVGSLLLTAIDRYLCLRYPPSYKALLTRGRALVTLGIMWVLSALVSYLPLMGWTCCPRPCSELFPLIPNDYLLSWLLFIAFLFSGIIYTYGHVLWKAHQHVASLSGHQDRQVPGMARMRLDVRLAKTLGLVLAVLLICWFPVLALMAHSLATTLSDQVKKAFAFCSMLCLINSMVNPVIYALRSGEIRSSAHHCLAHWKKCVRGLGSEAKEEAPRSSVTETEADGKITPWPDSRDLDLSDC
Kind of assay: Cannabinoid CB2 receptor agonist activity, yeast assay. The class given is cell-based. Particulars: relative to HU210; averages of a number of experiments; read-out: efficacy (Emax) at the cloned human cannabinoid CB2 receptor. As for the experimental part:
The cannabinoid CB2 receptor agonist activity of compounds of formula (I) was determined in accordance with the following experimental method.
Yeast (Saccharomyces cerevisiae) cells expressing the human cannabinoid CB2 receptor were generated by integration of an expression cassette into the ura3 chromosomal locus of yeast strain MMY23. This cassette consisted of DNA sequence encoding the human CB2 receptor flanked by the yeast GPD promoter to the 5′ end of CB2 and a yeast transcriptional terminator sequence to the 3′ end of CB2. MMY23 expresses a yeast/mammalian chimeric G-protein alpha subunit in which the C-terminal 5 amino acids of Gpa1 are replaced with the C-terminal 5 amino acids of human Gαi½ (as described in Brown et al. (2000), Yeast 16:11-22). Cells were grown at 30° C. in liquid Synthetic Complete (SC) yeast media (Guthrie and Fink (1991), Methods in Enzymology, Vol. 194) lacking uracil, tryptophan, adenine and leucine to late logarithmic phase (approximately 6 OD600/ml).
Agonists were prepared as […] solutions in DMSO. EC50 values (the concentration required to produce 50% maximal response) were estimated using 4 fold dilutions (BiomekFX, Beckman) into DMSO. Agonist solutions in DMSO (1% final assay volume) were transferred into black microtitre plates from Greiner (384-well). Cells were suspended at a density of 0.2 OD600/ml in SC media lacking histidine, uracil, tryptophan, adenine and leucine and supplemented with 10 mM 3-aminotriazole, 0.1M sodium phosphate pH 7.0, and 10 μM fluorescein di-β-D-glucopyranoside (FDGlu). This mixture (50 μl per well) was added to agonist in the assay plates (Multidrop 384, Labsystems). After incubation at 30° C. for 24 hours, fluorescence resulting from degradation of FDGlu to fluorescein due to exoglucanase, an endogenous yeast enzyme produced during agonist-stimulated cell growth, was determined using a fluorescence microtitre plate reader (Tecan Spectrofluor or LJL Analyst excitation wavelength: 485 nm; emission wavelength: 535 nm). Fluorescence was plotted against compound concentration and iteratively curve fitted using a four parameter fit to generate a concentration effect value. Efficacy (Emax) was calculated from the equation
Emax=Max[compound X]−Min[compound X]/Max[HU210]−Min[HU210]×100%
where Max[compound X] and Min[compound X] are the fitted maximum and minimum respectively from the concentration effect curve for compound X, and Max[HU210] and Min[HU210] are the fitted maximum and minimum respectively from the concentration effect curve for (6aR,10aR)-3-(1,1′-Dimethylheptyl)-6a,7,10,10a-tetrahydro-1-hydroxy-6,6-dimethyl-6H-dibenzo [b,d]pyran-9-methanol (HU210; available from Tocris). Equieffective molar ratio (EMR) values were calculated from the equation
Where EC50[compound X] is the EC50 of compound X and EC50[HU210] is the EC50of HU210.

Counter-ions that a name gives are not always drawn.

As to `Cn1cnc2c(Nc3cccc(Br)c3)ncc(C(=O)N3CCCCC3)c21` [Example 1, N-(3-Bromophenyl)-1-methyl-7-(1-piperidinylcarbonyl)-1H-imidazo[4,5-c]pyridin-4-amine hydrochloride salt], the Emax was greater than 50%. As to `Cn1cnc2c(Nc3cccc(Br)c3)ncc(C(=O)N3CCCC3)c21` [Example 3, N-(3-Bromophenyl)-1-methyl-7-(1-pyrrolidinylcarbonyl)-1H-imidazo[4,5-c]pyridin-4-amine hydrochloride salt], the maximal response (Emax) is greater than 50%. As for `CC(C)CNC(=O)c1cnc(Nc2cccc(Br)c2)c2ncn(C)c12` [Example 4, 4-[(3-Bromophenyl)amino]-1-methyl-N-(2-methylpropyl)-1H-imidazo[4,5-c]pyridine-7-carboxamide hydrochloride salt], the figure is greater than 50%. With `Cn1cnc2c(Nc3ccc(Cl)cc3Cl)ncc(C(=O)N3CCOCC3)c21` [Example 5, N-(2,4-Dichlorophenyl)-1-methyl-7-(4-morpholinylcarbonyl)-1H-imidazo[4,5-c]pyridin-4-amine hydrochloride salt], the Emax is greater than 50%.

Regarding `Cn1cnc2c(Nc3ccc(Cl)cc3Cl)ncc(C(=O)N3CCCC3)c21` [Example 7, N-(2,4-Dichlorophenyl)-1-methyl-7-(1-pyrrolidinylcarbonyl)-1H-imidazo[4,5-c]pyridin-4-amine hydrochloride salt], the maximum response (Emax) was greater than 50%.

Turning to `Cn1cnc2c(Nc3cccc(Cl)c3)ncc(C(=O)N3CCCCC3)c21` [Example 10, N-(3-Chlorophenyl)-1-methyl-7-(1-piperidinylcarbonyl)-1H-imidazo[4,5-c]pyridin-4-amine hydrochloride salt], the Emax is greater than 50%. Consider `CC(C)CNC(=O)c1cnc(Nc2cccc(Cl)c2)c2ncn(C)c12` [Example 12, 4-[(3-Chlorophenyl)amino]-1-methyl-N-(2-methylpropyl)-1H-imidazo[4,5-c]pyridine-7-carboxamide hydrochloride salt], for which the Emax is greater than 50%. Take `Cn1cnc2c(Oc3cccc(Cl)c3)ncc(C(=O)N3CCCCC3)c21` [Example 13, 4-[(3-Chlorophenyl)oxy]-1-methyl-7-(1-piperidinylcarbonyl)-1H-imidazo[4,5-c]pyridine hydrochloride salt]: the Emax is greater than 50%.

`Cn1cnc2c(Oc3cccc(Cl)c3)ncc(C(=O)N3CCOCC3)c21` [Example 14, 4-1(3-Chlorophenyl)oxy]-1-methyl-7-(4-morpholinylcarbonyl)-1H-imidazo[4,5-c]pyridine hydrochloride salt]: the maximal response (Emax) is greater than 50%. Turning to `Cn1cnc2c(Nc3cccc(OC(F)(F)F)c3)ncc(C(=O)N3CCOCC3)c21` [Example 17, 1-Methyl-7-(4-morpholinylcarbonyl)-N-{3-[(trifluoromethyl)oxy]phenyl}-1H-imidazo[4,5-c]pyridin-4-amine hydrochloride salt], the maximum response (Emax) is greater than 50%. In the case of `Cn1cnc2c(Nc3cccc(F)c3)ncc(C(=O)N3CCOCC3)c21` [Example 18, N-(3-Fluorophenyl)-1-methyl-7-(4-morpholinylcarbonyl)-1H-imidazo[4,5-c]pyridin-4-amine hydrochloride salt], the maximum response (Emax) was greater than 50%. Consider `Cc1c(Nc2ncc(C(=O)N3CCOCC3)c3c2ncn3C)cccc1C(F)(F)F` [Example 20, 1-Methyl-N-[2-methyl-3-(trifluoromethyl)phenyl]-7-(4-morpholinylcarbonyl)-1H-imidazo[4,5-c]pyridin-4-amine hydrochloride salt], for which the Emax was greater than 50%. Take `Cn1cnc2c(Nc3cccc(C(F)(F)F)c3F)ncc(C(=O)N3CCOCC3)c21` [Example 21, N-[2-Fluoro-3-(trifluoromethyl)phenyl]-1-methyl-7-(4-morpholinylcarbonyl)-1H-imidazo[4,5-c]pyridin-4-amine hydrochloride salt]: the maximum response (Emax) is greater than 50%. Regarding `Cn1cnc2c(Nc3ccc(F)c(Cl)c3)ncc(C(=O)N3CCOCC3)c21` [Example 22, N-(3-Chloro-4-fluorophenyl)-1-methyl-7-(4-morpholinylcarbonyl)-1H-imidazo[4,5-c]pyridin-4-amine hydrochloride salt], the Emax was greater than 50%.
